PubChem BioAssay AID1963825 (Molecular Pharmacology Branch, DTP, NCI, 2024)

Test: Anticancer human tumor 997537-175-T-J1-PDC patient-derived colon adenocarcinoma cell line growth inhibition [POLQ]
Conditions: 997537-175-T-J1-PDC complex spheroid viability, combination with POLQ inhibitors; for IC50: curve of first compound; for viability, T/C: stronger effect = lower value
Summary of the method: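 PDC + HUVEC + MSC complex spheroids; POLQ inhibitors ± partner drugs; top conc. at/near clinical Cmax, else 10 microM (SN-38 1 microM), half-log dilutions; 37 degrees C, 5% CO2.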

[1] = second compound 0.0316 µM, first compound 0.0316 µM
[2] = second compound 0.0316 µM, first compound 0.1 µM
[3] = second compound 0.0316 µM, first compound 0.316 µM
[4] = second compound 0.0316 µM, first compound 1 µM
[5] = second compound 0.0316 µM, first compound 3.16 µM
[6] = second compound 0.0316 µM, first compound 10 µM
[7] = second compound 0.1 µM, first compound 0.0316 µM
[8] = second compound 0.1 µM, first compound 0.1 µM
[9] = second compound 0.1 µM, first compound 0.316 µM
[10] = second compound 0.1 µM, first compound 1 µM
[11] = second compound 0.1 µM, first compound 3.16 µM
[12] = second compound 0.1 µM, first compound 10 µM
[13] = second compound 0.316 µM, first compound 0.0316 µM
[14] = second compound 0.316 µM, first compound 0.1 µM
[15] = second compound 0.316 µM, first compound 0.316 µM
[16] = second compound 0.316 µM, first compound 1 µM
[17] = second compound 0.316 µM, first compound 3.16 µM
[18] = second compound 0.316 µM, first compound 10 µM
[19] = second compound 1 µM, first compound 0.0316 µM
[20] = second compound 1 µM, first compound 0.1 µM
[21] = second compound 1 µM, first compound 0.316 µM
[22] = second compound 1 µM, first compound 1 µM
[23] = second compound 1 µM, first compound 3.16 µM
[24] = second compound 1 µM, first compound 10 µM
[25] = second compound 3.16 µM, first compound 0.0316 µM
[26] = second compound 3.16 µM, first compound 0.1 µM
[27] = second compound 3.16 µM, first compound 0.316 µM
[28] = second compound 3.16 µM, first compound 1 µM
[29] = second compound 3.16 µM, first compound 3.16 µM
[30] = second compound 3.16 µM, first compound 10 µM
[31] = second compound 10 µM, first compound 0.0316 µM
[32] = second compound 10 µM, first compound 0.1 µM
[33] = second compound 10 µM, first compound 0.316 µM
[34] = second compound 10 µM, first compound 1 µM
[35] = second compound 10 µM, first compound 3.16 µM
[36] = second compound 10 µM, first compound 10 µM
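Note: luminescence signal used as a surrogate for viable cells; spheroids exposed to drugs for seven days before readout.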

Work on `COc1ccc([C@@H](O)c2cc(-c3ncnc4cc(N5CCOCC5)ccc34)c(F)cc2Cl)nn1` + COC1C(OC(N)=O)C(O)C(Oc2ccc3c(O)c(NC(=O)c4ccc(O)c(CC=C(C)C)c4)c(=O)oc3c2C)OC1(C)C yielded an IC50 (second compound 0.0316 µM) greater than 10000 nM, an IC50 (second compound 0.1 µM) greater than 10000 nM and an IC50 (second compound 0.316 µM) greater than 10000 nM. The IC50 (second compound 1 µM) was greater than 10000 nM, the IC50 (second compound 3.16 µM) was greater than 10000 nM and the IC50 (second compound 10 µM) was greater than 10000 nM. The viability, T/C [1] was 116%, the viability, T/C [2] was 115% and the viability, T/C [3] was 110%. For the same compound, the viability, T/C [4] was 92%, the viability, T/C [5] was 105% and the viability, T/C [6] was 87.7%. The viability, T/C [7] was 109%, the viability, T/C [8] was 103% and the viability, T/C [9] was 95.3%. It also gave a viability, T/C [10] of 97.5%, a viability, T/C [11] of 94.4% and a viability, T/C [12] of 98.5%. For the same compound, the viability, T/C [13] was 107%, the viability, T/C [14] was 103% and the viability, T/C [15] was 92.5%. The viability, T/C [16] was 96.8%, the viability, T/C [17] was 115% and the viability, T/C [18] was 81.7%. It also gave a viability, T/C [19] of 98%, a viability, T/C [20] of 106% and a viability, T/C [21] of 109%. For the same compound, the viability, T/C [22] was 92.4%, the viability, T/C [23] was 97.2% and the viability, T/C [24] was 77.4%. For the same compound, the viability, T/C [25] was 106%, the viability, T/C [26] was 108% and the viability, T/C [27] was 109%. The viability, T/C [28] was 105%, the viability, T/C [29] was 93.3% and the viability, T/C [30] was 83.8%. The viability, T/C [31] was 111%, the viability, T/C [32] was 103% and the viability, T/C [33] was 118%. The viability, T/C [34] was 83.6%, the viability, T/C [35] was 115% and the viability, T/C [36] was 114%.
For `COc1cccc2c1C(=O)c1c(O)c3c(c(O)c1C2=O)CC(O)(C(=O)CO)CC3OC1CC(N)C(O)C(C)O1` (stereo unspecified) + COC1C(OC(N)=O)C(O)C(Oc2ccc3c(O)c(NC(=O)c4ccc(O)c(CC=C(C)C)c4)c(=O)oc3c2C)OC1(C)C, the IC50 (second compound 0.0316 µM) was 2490 nM, the IC50 (second compound 0.1 µM) was 1660 nM and the IC50 (second compound 0.316 µM) was 2220 nM. The IC50 (second compound 1 µM) was 3230 nM, the IC50 (second compound 3.16 µM) was 2030 nM and the IC50 (second compound 10 µM) was 2770 nM. It also gave a viability, T/C [1] of 114%, a viability, T/C [2] of 100% and a viability, T/C [3] of 98%. The viability, T/C [4] was 84.8%, the viability, T/C [5] was 40.2% and the viability, T/C [6] was 7.93%. The viability, T/C [7] was 102%, the viability, T/C [8] was 114% and the viability, T/C [9] was 95.6%. It also gave a viability, T/C [10] of 75.4%, a viability, T/C [11] of 18.1% and a viability, T/C [12] of 10.4%. The viability, T/C [13] was 101%, the viability, T/C [14] was 99.8% and the viability, T/C [15] was 102%. It also gave a viability, T/C [16] of 96.6%, a viability, T/C [17] of 29.2% and a viability, T/C [18] of 8.56%. It also gave a viability, T/C [19] of 94.7%, a viability, T/C [20] of 89.8% and a viability, T/C [21] of 88%. It also gave a viability, T/C [22] of 95.1%, a viability, T/C [23] of 50.8% and a viability, T/C [24] of 9.76%. It also gave a viability, T/C [25] of 106%, a viability, T/C [26] of 119% and a viability, T/C [27] of 75.4%. For the same compound, the viability, T/C [28] was 77.6%, the viability, T/C [29] was 34.8% and the viability, T/C [30] was 13.1%. It also gave a viability, T/C [31] of 96.5%, a viability, T/C [32] of 99.3% and a viability, T/C [33] of 107%. It also gave a viability, T/C [34] of 97.4%, a viability, T/C [35] of 43.9% and a viability, T/C [36] of 7.86%.
Compound `COc1cccc2c1C(=O)c1c(O)c3c(c(O)c1C2=O)CC(O)(C(=O)CO)CC3OC1CC(N)C(O)C(C)O1` (stereo unspecified) + Cc1cccc(N(C)C(=O)C2C(O)CCN2c2nc(C)cc(C(F)(F)F)c2C#N)c1 has an IC50 (second compound 0.0316 µM) of 2650 nM, an IC50 (second compound 0.1 µM) of 2390 nM and an IC50 (second compound 0.316 µM) of 4160 nM. For the same compound, the IC50 (second compound 1 µM) was 1540 nM, the IC50 (second compound 3.16 µM) was 2000 nM and the IC50 (second compound 10 µM) was 1780 nM. The viability, T/C [1] was 81.4%, the viability, T/C [2] was 98.2% and the viability, T/C [3] was 104%. It also gave a viability, T/C [4] of 85.8%, a viability, T/C [5] of 43.6% and a viability, T/C [6] of 10.9%. It also gave a viability, T/C [7] of 101%, a viability, T/C [8] of 102% and a viability, T/C [9] of 113%. For the same compound, the viability, T/C [10] was 76.6%, the viability, T/C [11] was 42.2% and the viability, T/C [12] was 9.45%. For the same compound, the viability, T/C [13] was 99.3%, the viability, T/C [14] was 108% and the viability, T/C [15] was 116%. The viability, T/C [16] was 95.4%, the viability, T/C [17] was 63.4% and the viability, T/C [18] was 9.08%. The viability, T/C [19] was 92.8%, the viability, T/C [20] was 111% and the viability, T/C [21] was 99.8%. For the same compound, the viability, T/C [22] was 63.7%, the viability, T/C [23] was 26.1% and the viability, T/C [24] was 9.7%. For the same compound, the viability, T/C [25] was 82.9%, the viability, T/C [26] was 115% and the viability, T/C [27] was 92.2%. It also gave a viability, T/C [28] of 97%, a viability, T/C [29] of 18.8% and a viability, T/C [30] of 10.2%. For the same compound, the viability, T/C [31] was 102%, the viability, T/C [32] was 104% and the viability, T/C [33] was 90.7%. It also gave a viability, T/C [34] of 56.2%, a viability, T/C [35] of 41.9% and a viability, T/C [36] of 9.99%.
